# Laboratory results published in PMC5508548 (Bioorganic & medicinal chemistry letters, 2017).
# Assays:
# [1] = IV pharmacokinetics in SD rat; assay type: in vivo; details: Sprague-Dawley, plasma
# In vitro clearance, rat = assay type: in vitro ADME; details: for CLHEP, rat: in vitro predicted, well-stirred equation without fuplasma/fumic terms; for CLHEP, rat / CLint scaled: rat; for CLint scaled: liver microsomes
# [2] = In vitro clearance, human; assay type: in vitro ADME; details: for CLHEP, human: in vitro predicted; for CLint scaled: liver microsomes
# CYP450s (panel) = experiment: CYP450 inhibition profile; assay type: in vitro ADME
# [3] = tested on: L-DOPA-induced dyskinesia; details: PD-LID mice and NHPs; cited from earlier work
# GABAA receptor = experiment: GABAA functional assay; assay type: biochemical; details: at 10 μM
# rat M1-3,5 = experiment: Muscarinic subtype selectivity, rat M1-3,5; assay type: cell-based; details: read-out: EC50 at rat M1-3,5
# CYP 1A2/2B6/3A4 = experiment: CYP induction in cryopreserved human hepatocytes; assay type: in vitro ADME; details: 48 hr incubation, enzyme activity readout
# CYP1A2, CYP2B6, CYP3A4 = experiment: CYP induction in cryopreserved human hepatocytes; assay type: in vitro ADME; details: human
# TA98 and TA100 strains = experiment: Mini-Ames assay; details: TA98 and TA100 strains ± S9
# [4] = tested on: L-DOPA-induced dyskinesia; details: NHPs, 10 mg/kg IV; cited from earlier work
# human M1-3,5 = experiment: Muscarinic subtype selectivity, human M1-3,5; assay type: cell-based; details: read-out: EC50 at human M1-3,5
# dog M2 = experiment: Muscarinic subtype selectivity, dog M2; assay type: cell-based; details: data not shown
# [5] = In vitro metabolite identification in cryopreserved hepatocytes; assay type: in vitro ADME, rat, dog, cynomolgus monkey, human
# cyno M4 = cyno M4 (Macaca fascicularis, UniProt G7PQB4); experiment: ACh CRC fold-shift Ca2+ mobilization and ACh competition binding; assay type: cell-based, cynomolgus monkey; details: operational model cooperativity; n=3–4
# [6] = Reactive metabolism/bioactivation; assay type: in vitro ADME; details: human hepatic microsomes
# [7] = IV and PO pharmacokinetics in cynomolgus monkey; assay type: in vivo
# cyno M2 = experiment: Muscarinic subtype selectivity, cyno M2; assay type: cell-based, cynomolgus monkey; details: data not shown
# [8] = Oral pharmacokinetics in rat; assay type: in vivo
# CYP450 = experiment: Human CYP450 phenotyping; assay type: in vitro ADME
# [9] = IV and PO pharmacokinetics in dog; assay type: in vivo
compound,measurement,setting,value
Cc1nnc2sc(C(=O)NCc3ccc(-c4ccncc4)cc3)c(N)c2c1C [8f],clearance,[1],9 mL/min/kg
same,"CLHEP, rat","In vitro clearance, rat",59.9 mL/min/kg
same,CLint scaled,"In vitro clearance, rat",415 mL/min/kg
same,"CLHEP, human",[2],15.2 mL/min/kg
same,CLint scaled,[2],20.1 mL/min/kg
same,IC50,CYP450s (panel),< 10 µM
Cc1nnc2sc(C(=O)NCc3ccc(-c4ccnc(F)c4)cc3)c(N)c2c1C [8k],clearance,[1],3.6 mL/min/kg
same,"CLHEP, rat","In vitro clearance, rat",31.5 mL/min/kg
same,CLint scaled,"In vitro clearance, rat",57.1 mL/min/kg
same,"CLHEP, human",[2],17.8 mL/min/kg
same,CLint scaled,[2],19.6 mL/min/kg
Cc1nnc2sc(C(=O)NCc3ccc(-c4ccc(F)nc4)cc3)c(N)c2c1C [8m],clearance,[1],1.7 mL/min/kg
same,"CLHEP, rat","In vitro clearance, rat",37.7 mL/min/kg
same,CLint scaled,"In vitro clearance, rat",81.6 mL/min/kg
same,"CLHEP, human",[2],17.1 mL/min/kg
same,CLint scaled,[2],20.2 mL/min/kg
"Cc1nnc2sc(C(=O)NCc3ccc(-c4cccnc4F)cc3)c(N)c2c1C [8p, 5-amino-N-(4-(2-fluoropyridine-3-yl)benzyl)-3,4-dimethylthieno[2,3-c] pyridazine-6-carboxamide]",deficits in synaptic plasticity and behavior,[3],ameliorates deficits in synaptic plasticity and behavior
same,clearance,[1],1.6 mL/min/kg
same,GABAA functional assay activity,GABAA receptor,no activity
same,EC50,"rat M1-3,5",> 30 µM
same,"CLHEP, rat","In vitro clearance, rat",46.0 mL/min/kg
same,"predicted rat CLhep, revised prediction method","In vitro clearance, rat; inclusion of binding terms in the well-stirred model",0.49 mL/min/kg
same,CLint scaled,"In vitro clearance, rat",134 mL/min/kg
same,CYP 1A2/2B6/3A4 induction Emaxs,CYP 1A2/2B6/3A4,< 2
same,EC50 at 48 h,"CYP1A2, CYP2B6, CYP3A4",> 50 µM
same,mini-Ames mutagenicity,TA98 and TA100 strains,negative
same,dyskinesia scores and involuntary movements,[4],significantly reduces dyskinesia scores and involuntary movements
same,EC50,"human M1-3,5",> 30 µM
same,activity at dog M2,dog M2,inactive
same,human unique metabolites,"[5]; cryopreserved hepatocytes, multiple species",no evidence for human unique metabolites
same,turnover in cryopreserved hepatocytes,"[5]; rat, dog, cynomolgus monkey, human hepatocytes",low turnover
same,"CLHEP, human",[2],14.8 mL/min/kg
same,CLint scaled,[2],19.2 mL/min/kg
same,α at cyno M4,cyno M4,28.2
same,β at cyno M4,cyno M4,2.5
same,GSH conjugates,[6],no significant levels of GSH conjugates
same,IC50,CYP450s (panel),≥ 11 µM
same,oral bioavailability,[7]; 10 mg/kg solution dose of HCl salt,4.7 %F
same,clearance,"[7]; plasma, iv",9.3 mL/min/kg
same,activity at cyno M2,cyno M2,inactive
same,oral bioavailability,[8]; 10 mg/kg solution dose,61 % F
same,oral bioavailability,[8]; HCl salt of 8p dosed as a suspension,54 %F
same,CYPs contributing to metabolism,CYP450,"3A4 (predominant), 2D6, 2C19, 2C9 and 1A2"
same,oral bioavailability,[9]; 3 mg/kg suspension dose of the HCl salt,47 %F
same,clearance,"[9]; plasma, iv",5.5 mL/min/kg
